Data on 11 compounds can be found in PubChem BioAssay (NCI).

Some test systems named below: A498 renal; CCRF-CEM leukemia; COLO 205 colon; DU-145 prostate; HL-60(TB) leukemia; HOP-62 NSCLC; NCI-H226 lung; NCI-H460 lung; RXF 393 renal; NCI-H23 lung.
Holding throughout (assay): NCI tumour cell line growth inhibition, 48 h

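Cells were grown in 96-well plates and exposed to each compound for 48 hours at five concentrations; endpoints were interpolated linearly between bracketing concentrations, or set to the highest concentration if not reached. GI50 marks 50% less growth. TGI is the concentration that stops growth completely.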

As to `O=C(/C=C\c1ccc(Cl)c(Cl)c1)c1ccccc1`, the GI50 was 12.4 µM with A498 renal; 2.68 µM in the test on CCRF-CEM leukemia; 13.6 µM with COLO 205 colon; 10.1 µM with DU-145 prostate; 5.46 µM in the test with HL-60(TB) leukemia; 17.3 µM in the test on HOP-62 NSCLC. In addition, the GI50 in the test on NCI-H226 lung is 13.9 µM; in the test with NCI-H460 lung it was 15.9 µM; with RXF 393 renal, 12.3 µM. For the same compound, the TGI stood at 25.2 µM in the test with A498 renal; 8.78 µM in the test on CCRF-CEM leukemia; 29.7 µM with COLO 205 colon; 21.9 µM in the test on DU-145 prostate; 29.1 µM in the test with HL-60(TB) leukemia; 35.1 µM with HOP-62 NSCLC. For the same compound, the TGI with NCI-H226 lung came to 30.7 µM; with NCI-H460 lung it was 32.9 µM; in the test with RXF 393 renal, 26.6 µM.

Regarding `CCOc1ccccc1Nc1nc(C)c(C(=O)CC(=O)C(=O)Nc2ccccc2)s1`, the TGI in the test with A498 renal was > 100 µM; with CCRF-CEM leukemia, > 100 µM; with COLO 205 colon it was > 100 µM; in the test with HL-60(TB) leukemia, 58.1 µM; in the test with HOP-62 NSCLC it was > 100 µM; in the test with NCI-H226 lung it was > 100 µM. Also, the TGI in the test with NCI-H23 lung, in the test with NCI-H460 lung and in the test on RXF 393 renal was > 100 µM each time.

On to `COc1ccc2nccc(C3OC(=O)N4CCC(=O)CC34)c2c1` (stereo not given), for which the TGI in the test with A498 renal, in the test on CCRF-CEM leukemia, in the test with COLO 205 colon, in the test on HL-60(TB) leukemia, with HOP-62 NSCLC and with NCI-H226 lung was > 100 µM throughout. Moreover, the TGI with NCI-H23 lung, with NCI-H460 lung and with RXF 393 renal was > 100 µM each time.

For `COC(=O)C1CCC2(CC1)NC(=O)NC2=O` (stereo not given), the TGI in the test on A498 renal, in the test on CCRF-CEM leukemia, with COLO 205 colon, with HL-60(TB) leukemia, with HOP-62 NSCLC and with NCI-H226 lung was > 100 µM throughout. In addition, the TGI in the test on NCI-H23 lung, in the test on NCI-H460 lung and in the test with RXF 393 renal was > 100 µM each time.

For `COc1cc(C2C(C(=O)Nc3ccc(Cl)c(Cl)c3)=C(C)NC(C)=C2C(=O)Nc2ccc(Cl)c(Cl)c2)ccc1O`, the TGI in the test with A498 renal was 28.5 µM; with CCRF-CEM leukemia it was 13.5 µM; in the test on COLO 205 colon it was 30.2 µM; with HL-60(TB) leukemia, 23.3 µM; with HOP-62 NSCLC, 23.1 µM; in the test on NCI-H226 lung it was 40.8 µM. Besides, the TGI with NCI-H23 lung is 27.5 µM; in the test with NCI-H460 lung, 35.5 µM; in the test on RXF 393 renal it was 12.8 µM.

Consider `N#Cc1c(-c2ccc(Cl)cc2)n([O-])c2ccccc2[n+]1=O`, for which the GI50 in the test on CCRF-CEM leukemia is 2.63 µM; in the test on COLO 205 colon it was 23 µM; in the test with DU-145 prostate, 18.1 µM; in the test on HL-60(TB) leukemia, 3.1 µM; with HOP-62 NSCLC it was 16.7 µM; with NCI-H226 lung it was 18.1 µM. In addition, the figures for the GI50 in the test with NCI-H23 lung, in the test with NCI-H460 lung and with RXF 393 renal were 16.2 µM, 18.5 µM and 11 µM, respectively. Besides, the TGI in the test with CCRF-CEM leukemia came to 8.2 µM; in the test on COLO 205 colon, 54.4 µM; in the test on DU-145 prostate, 32.8 µM; in the test with HL-60(TB) leukemia, 11.4 µM; in the test on HOP-62 NSCLC it was 30.9 µM; in the test on NCI-H226 lung, 46.7 µM. Also, the TGI with NCI-H23 lung worked out at 31.3 µM; in the test on NCI-H460 lung it was 42.8 µM; in the test with RXF 393 renal it was 33.2 µM.

On to `CCCCCC1C2C(=O)NC(=O)C1C(=O)NC2=O` (stereo not given), for which the TGI in the test on A498 renal, in the test with CCRF-CEM leukemia, in the test on COLO 205 colon, in the test with HL-60(TB) leukemia, with HOP-62 NSCLC and with NCI-H226 lung was > 100 µM throughout. Also, the TGI with NCI-H23 lung, with NCI-H460 lung and in the test with RXF 393 renal was > 100 µM each time.

Regarding `Oc1ccc(-c2nc(-c3ccc4oc5ccc(-c6[nH]c(-c7ccc(O)cc7)nc6-c6ccccc6)cc5c4c3)c(-c3ccccc3)[nH]2)cc1`, the GI50 with A498 renal is 12.2 µM; in the test with COLO 205 colon, 3.09 µM; with DU-145 prostate, 4.83 µM; in the test with HL-60(TB) leukemia, 2.79 µM; with HOP-62 NSCLC it was 7.62 µM; in the test with NCI-H226 lung, 13.3 µM. The GI50 in the test with NCI-H23 lung was 5.2 µM; in the test on NCI-H460 lung it was 3.01 µM; with RXF 393 renal, 2.12 µM. Besides, the TGI is 26 µM in the test on A498 renal; 8.18 µM in the test on COLO 205 colon; 20.6 µM with DU-145 prostate; 8.09 µM in the test with HL-60(TB) leukemia; 42.3 µM in the test with HOP-62 NSCLC; > 100 µM in the test with NCI-H226 lung. Moreover, the results for the TGI in the test with NCI-H23 lung, in the test on NCI-H460 lung and in the test with RXF 393 renal were 33.7 µM, 9.85 µM and 5.45 µM, respectively.

In the case of `CC(=O)NC1C(=O)CC(c2ccccc2)N(C)C1c1ccccc1` (stereo not given), the TGI in the test on A498 renal, in the test on CCRF-CEM leukemia, in the test with COLO 205 colon, in the test on HL-60(TB) leukemia, in the test with HOP-62 NSCLC and in the test with NCI-H226 lung was > 100 µM throughout. The TGI with NCI-H23 lung, with NCI-H460 lung and in the test with RXF 393 renal was > 100 µM each time.

On to `O=C1OC2C(O)COC2(OCc2c[nH]c3ccccc23)C1O` (stereo not given) (tested in a mixture with another compound), for which the TGI with A498 renal, with CCRF-CEM leukemia, with COLO 205 colon, in the test with HL-60(TB) leukemia, with HOP-62 NSCLC and in the test with NCI-H226 lung was > 100 µM throughout. In addition, the TGI with NCI-H23 lung, with NCI-H460 lung and in the test on RXF 393 renal was > 100 µM in each case.

Regarding `CC1SC(c2cccc(Oc3ccccc3)c2)N(CCc2cccs2)C1=O` (stereo not given), the GI50 with A498 renal was 1.21 µM; in the test on CCRF-CEM leukemia, 0.747 µM; in the test with COLO 205 colon it was 1.5 µM; in the test with DU-145 prostate, 1.6 µM; in the test on HL-60(TB) leukemia it was 1.17 µM; in the test with HOP-62 NSCLC it was 1.6 µM. In addition, the results for the GI50 with NCI-H226 lung, in the test with NCI-H23 lung and in the test on NCI-H460 lung were 1.28 µM, 0.718 µM and 1.09 µM, respectively. Further, the TGI was 2.46 µM in the test with A498 renal; > 24 µM in the test with CCRF-CEM leukemia; 3.05 µM in the test with COLO 205 colon; 3.88 µM with DU-145 prostate; 6.56 µM in the test on HL-60(TB) leukemia; 3.42 µM in the test with HOP-62 NSCLC. Moreover, the TGI in the test with NCI-H226 lung was found to be 2.94 µM; in the test on NCI-H23 lung, 3.55 µM; in the test on NCI-H460 lung, 2.49 µM.
